In patent US10717750B2, “68Ga-labeled NOTA-chelated PSMA-targeted imaging and therapeutic agents” (THE JOHNS HOPKINS UNIVERSITY, priority 2009, dated 2020):
“Also recorded” adds a separate entry of the source. Where two headings read alike, the source gives them in different places.

Experiments:
[1] = tested on: PSMA+ PC3 PIP and PSMA− PC3 flu tumors; assay: Tissue biodistribution in mice bearing PSMA+ PC3 PIP and PSMA− PC3 flu tumors; settings: mouse, in vivo
[2] = chelating agent with gallium, cited from earlier work
[3] = target: T1, PSMA (Homo sapiens, UniProt Q04609); assay: PSMA inhibition assay (fluorescence-based, NAAG hydrolysis, Amplex Red); type: biochemical; settings: for Ki: lysates of LNCaP cell extracts, 4 μM NAAG, Cheng-Prusoff conversion
T1 construct: endogenous in cells; host or cells: LNCaP cell lysate
Experimental: The PSMA inhibitory activity of 1, 2 and DKFZ-PSMA-11 and the corresponding natural Ga-labeled analogs Ga-1 and Ga-2 were determined using a fluorescence-based assay according to a previously reported procedure (Banerjee et al. (2011) Angewandte Chemie 50, 9167-70) (Table 1). Briefly, lysates of LNCaP cell extracts (25 μL) were incubated with the inhibitor (12.5 μL) in the presence of 4 μM N-acetylaspartylglutamate (NAAG) (12.5 μL) for 2 h. The amount of the glutamate released by NAAG hydrolysis was measured by incubating with a working solution (50 μL) of the Amplex Red Glutamic Acid Kit (Life Technologies, Grand Island, N.Y.) for 1 h.
Fluorescence was measured with a VICTOR3V multilabel plate reader (Perkin Elmer Inc., Waltham, Mass.) with excitation at 490 nm and emission at 642 nm. Inhibition curves were determined using semi-log plots and IC50 values were determined at the concentration at which enzyme activity was inhibited by 50%. Enzyme inhibitory constants (Ki values) were generated using the Cheng-Prusoff conversion (Cheng et al. (1973) Biochemical pharmacology 22, 3099-108). Assays were performed in triplicate. Data analysis was performed using GraphPad Prism version 4.00 for Windows (GraphPad Software, San Diego, Calif.).

[4] = Hydrophilicity/lipophilicity judged from HPLC retention (RP C8); type: physicochemical; settings: based on HPLC retention time
[5] = tested on: PSMA+ PC3 PIP and PSMA− PC3 flu tumors
[6] = 1 h post-injection, mean ± SD, n = 4
[7] = 2 h post-injection, mean ± SD, n = 4
[8] = 3 h post-injection, mean ± SD, n = 4

T1 sequence (Q04609 whole entry): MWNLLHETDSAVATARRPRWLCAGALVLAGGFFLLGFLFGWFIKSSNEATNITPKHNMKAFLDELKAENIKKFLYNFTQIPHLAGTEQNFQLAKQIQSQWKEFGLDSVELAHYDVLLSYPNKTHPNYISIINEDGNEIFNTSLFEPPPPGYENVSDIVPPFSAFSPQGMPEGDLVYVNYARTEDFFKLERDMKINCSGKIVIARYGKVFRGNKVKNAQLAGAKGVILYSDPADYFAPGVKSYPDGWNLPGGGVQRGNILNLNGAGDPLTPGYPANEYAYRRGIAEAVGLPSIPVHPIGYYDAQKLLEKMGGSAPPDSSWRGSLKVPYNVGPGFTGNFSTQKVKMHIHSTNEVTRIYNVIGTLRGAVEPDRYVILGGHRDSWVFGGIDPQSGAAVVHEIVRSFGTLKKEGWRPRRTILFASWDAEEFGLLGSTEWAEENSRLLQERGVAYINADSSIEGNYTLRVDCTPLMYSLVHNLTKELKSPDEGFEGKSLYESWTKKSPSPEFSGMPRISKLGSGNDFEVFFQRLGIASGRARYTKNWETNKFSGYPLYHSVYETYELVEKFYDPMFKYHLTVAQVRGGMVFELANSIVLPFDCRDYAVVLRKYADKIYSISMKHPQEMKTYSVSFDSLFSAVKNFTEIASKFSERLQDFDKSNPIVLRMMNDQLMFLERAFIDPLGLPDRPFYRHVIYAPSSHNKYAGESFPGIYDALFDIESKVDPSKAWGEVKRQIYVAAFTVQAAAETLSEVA

**Q.** Which “rate of clearance from tissues, comparison of the three radiotracers” value [1] does the source give for O=C([O-])CN1CCN(CC(=O)[O-])CC(Cc2ccc(NC(=S)NCCCCC(NC(=O)CCCCCCC(=O)NCCCCC(NC(=O)NC(CCC(=O)O)C(=O)O)C(=O)O)C(=O)O)cc2)N(CC(=O)[O-])CC1.[68Ga+3] (centres unmarked) [^68Ga-2] here?
**A.** Its value is “fastest rate of clearance from all tissues”.

**Q.** For O=C(O)CN1CCN(CC(=O)O)CCN(CC(=O)O)CCN(CC(=O)O)CC1 [DOTA, 1,4,7,10-tetraazacyclododecane-1,4,7,10-tetraacetic acid], which stability constant, KML, for 68Ga ([2]; the values are: log stability constant) is on record?
**A.** Its stability constant, KML, for 68Ga is 21.3.

**Q.** Which Ki [3] does the source give for O=C(O)CCC(NC(=O)NC(CCCCNC(=O)CCCCCCC(=O)NC(CCCCNC(=S)Nc1ccc(CC2CN(CC(=O)O)CCN(CC(=O)O)CCN2CC(=O)O)cc1)C(=O)O)C(=O)O)C(=O)O (centres unmarked) [Compound 2] here?
**A.** Its Ki is 0.81 nM.

**Q.** For O=C([O-])CN(CCN(CC(=O)[O-])Cc1cc(CCC(=O)NCCCCCC(=O)NCCCCC(NC(=O)NC(CCC(=O)O)C(=O)O)C(=O)O)ccc1[O-])Cc1cc(CCC(=O)O)ccc1[O-].[Ga+3] (centres unmarked) [Ga-DKFZ-PSMA-11], which “hydrophilicity/lipophilicity rank in the series” value [4] is on record?
**A.** Its value is “most hydrophilic”.

**Q.** For O=C(O)CCC(NC(=O)NC(CCCCNC(=O)CCCCCCC(=O)NCCCCC(NC(=O)C(Cc1ccccc1)NC(=O)C(Cc1ccccc1)NC(=O)CN1CCN(CC(=O)O)CCN(CC(=O)O)CCN(CC(=O)O)CC1)C(=O)O)C(=O)O)C(=O)O (centres unmarked) [Compound 1], which Ki [3] is on record?
**A.** The Ki was 0.7 nM.

**Q.** With O=C([O-])CN1CCN(CC(=O)[O-])CC(Cc2ccc(NC(=S)NCCCCC(NC(=O)CCCCCCC(=O)NCCCCC(NC(=O)NC(CCC(=O)O)C(=O)O)C(=O)O)C(=O)O)cc2)N(CC(=O)[O-])CC1.[Ga+3] (centres unmarked) [Ga-2] as the compound, how does the Ki [3] read?
**A.** The Ki was 0.38 nM.

**Q.** Which results are given for O=C([O-])CN(CCN(CC(=O)[O-])Cc1cc(CCC(=O)NCCCCCC(=O)NCCCCC(NC(=O)NC(CCC(=O)O)C(=O)O)C(=O)O)ccc1[O-])Cc1cc(CCC(=O)O)ccc1[O-].[68Ga+3] (centres unmarked) [^68Ga-DKFZ-PSMA-11, reference compound]?
**A.** PSMA+ PC3 PIP-to-PSMA− PC3 flu ratio ([5]; 1 h post-injection): 46.62±7.57; PIP:blood ratio [5, 6]: 35.45 ± 13.43; PIP:flu (PSMA+ PC3 PIP-to-PSMA− PC3 flu tumor uptake ratio) [5, 6]: 46.62 ± 17.57; PSMA+ PC3 PIP tumor uptake [5, 6]: 25.96 ± 9.69 % ID/g; PSMA− PC3 flu tumor uptake [5, 6]: 0.57 ± 0.14 % ID/g; blood uptake [5, 6]: 0.75 ± 0.20 % ID/g; heart uptake [5, 6]: 0.42 ± 0.16 % ID/g; kidney uptake [5, 6]: 133.24 ± 21.08 % ID/g; liver uptake [5, 6]: 0.75 ± 0.19 % ID/g; lung uptake [5, 6]: 2.21 ± 0.48 % ID/g; muscle uptake [5, 6]: 0.32 ± 0.12 % ID/g; salivary gland uptake [5, 6]: 1.42 ± 0.33 % ID/g; small intestine uptake [5, 6]: 0.39 ± 0.09 % ID/g; spleen uptake [5, 6]: 12.35 ± 3.75 % ID/g; PSMA+ PC3 PIP-to-PSMA− PC3 flu ratio ([5]; 2 h post-injection): 57.68±27.10; PIP:blood ratio [5, 7]: 51.88 ± 10.82; PIP:flu (PSMA+ PC3 PIP-to-PSMA− PC3 flu tumor uptake ratio) [5, 7]: 57.68 ± 27.10; PIP:kidney ratio [5, 7]: 0.24 ± 0.04; PSMA+ PC3 PIP tumor uptake [5, 7]: 21.08 ± 1.17 % ID/g; PSMA− PC3 flu tumor uptake [5, 7]: 0.41 ± 0.17 % ID/g; blood uptake [5, 7]: 0.41 ± 0.06 % ID/g; heart uptake [5, 7]: 0.28 ± 0.06 % ID/g; kidney uptake [5, 7]: 88.56 ± 20.09 % ID/g; liver uptake [5, 7]: 0.33 ± 0.05 % ID/g; lung uptake [5, 7]: 2.07 ± 0.68 % ID/g; muscle uptake [5, 7]: 0.19 ± 0.09 % ID/g; salivary gland uptake [5, 7]: 1.02 ± 0.22 % ID/g; small intestine uptake [5, 7]: 0.19 ± 0.07 % ID/g; spleen uptake [5, 7]: 8.87 ± 1.50 % ID/g; PSMA+ PC3 PIP-to-PSMA− PC3 flu ratio ([5]; 3 h post-injection): 110.57±21.27; PIP:blood ratio [5, 8]: 79.55 ± 9.83; PIP:kidney ratio [5, 8]: 0.22 ± 0.04; PIP:salivary gland ratio [5, 8]: 31.40 ± 4.85; PSMA+ PC3 PIP tumor uptake [5, 8]: 26.86±5.59 % ID/g; PSMA− PC3 flu tumor uptake [5, 8]: 0.25 ± 0.07 % ID/g; blood uptake [5, 8]: 0.34 ± 0.06 % ID/g; heart uptake [5, 8]: 0.20 ± 0.04 % ID/g; kidney uptake [5, 8]: 119.54 ± 15.49 % ID/g; liver uptake [5, 8]: 0.38 ± 0.15 % ID/g; lung uptake [5, 8]: 1.26 ± 0.20 % ID/g; muscle uptake [5, 8]: 0.14 ± 0.02 % ID/g; salivary gland uptake [5, 8]: 0.86 ± 0.12 % ID/g; small intestine uptake [5, 8]: 0.17 ± 0.06 % ID/g; spleen uptake [5, 8]: 7.18 ± 2.25 % ID/g; spleen uptake, comparison with ^68Ga-1 or ^68Ga-2 ([5]; all time-points, P<0.04): higher spleen uptake; salivary gland uptake, comparison with ^68Ga-1 and ^68Ga-2 ([5]; up to 3 h after injection, P<0.001): significantly higher salivary gland uptake; uptake and retention in normal tissues (kidney, blood, spleen, salivary glands, PSMA-negative PC3 flu tumors), comparison ([5]; up to 3 h post-injection): highest uptake and retention; hydrophilicity/lipophilicity rank in the series [4]: most hydrophilic

**Q.** Which Ki [3] does the source give for O=C([O-])CN1CCN(CC(=O)[O-])CCN(CC(=O)NC(Cc2ccccc2)C(=O)NC(Cc2ccccc2)C(=O)NC(CCCCNC(=O)CCCCCCC(=O)NCCCCC(NC(=O)NC(CCC(=O)O)C(=O)O)C(=O)O)C(=O)O)CCN(CC(=O)[O-])CC1.[Ga+3] (centres unmarked) [Ga-1] here?
**A.** Its Ki is 0.33 nM.

**Q.** Which “hydrophilicity/lipophilicity rank in the series” value [4] does the source give for O=C(O)CCc1ccc(O)c(CN(CCN(CC(=O)O)Cc2cc(CCC(=O)NCCCCCC(=O)NCCCC[C@H](NC(=O)N[C@@H](CCC(=O)O)C(=O)O)C(=O)O)ccc2O)CC(=O)O)c1 [DKFZ-PSMA-11, Glu-urea-Lys-(Ahx)-HBED-CC, reference compound] here?
**A.** The value was “least hydrophilic; also recorded: most lipophilic”.

**Q.** And the “PSMA-binding affinity relative to Ga-1 and Ga-2” value [3]?
**A.** The value was “ten-fold higher”.

**Q.** And the Ki [3]?
**A.** Its Ki is 0.03 nM.

**Q.** With O=C(O)CN1CCN(CC(=O)O)CCN(CC(=O)O)CC1 [NOTA, 1,4,7-triazacyclononane-1,4,7-trisacetic acid] as the compound, how does the “stability constant, KML, for 68Ga” value [2] read?
**A.** The value was 31.1.
